The values that follow come from PMC10298982, “Stability Characterization of the Novel Anti-Cancer HM-10/10 HDL-Mimetic Peptide” (International Journal of Molecular Sciences, 2023).

Structures are written as SMILES.

For orientation: inhibition means the share of the control response that was lost under treatment. The term IC50 denotes the point on the concentration scale where inhibition reaches its midpoint. The term fraction unbound denotes the share of the substance not bound to proteins or other matrix.

Data set [1] addresses T1, CYP2C19 (Homo sapiens, UniProt P33261). The data set is described as follows: in vitro. To be noted: both, microsomes.
The target of data set [2] is T1, CYP2C19. Briefly: CYP450 time-dependent inhibition, CYP2C19, pooled human liver microsomes. The conditions noted are these: Mephenytoin (2C19).
The next data set relates to CYP1A2. The data set is described as follows: CYP1A2 induction (mRNA expression) in single-donor human hepatocytes. Type of data set: in vitro ADME. To be noted: 50 µM (control). On the procedure: RNA isolation and quantification: E-Z 96 Total RNA Kit (Omega Bio-tek, Catalog No. R1034-02) was used for RNA isolation and Quant-iT RNA assay kit (ThermoFisher, Catalog No. Q33140) was used for RNA quantification. The plates were removed from a −80 °C freezer and equilibrated to room temperature. RNA was extracted using the manufacturer’s recommended protocol. Eighty-one microliters of 100% ethanol were added into each well containing 150 µL of lysed sample to make a final ethanol concentration at 35%.
cDNA generation: For cDNA generation, a High-Capacity cDNA Reverse Transcription Kit (Applied Biosystems, Catalog No. 4319983) and QuantStudio 3 PCR system (Applied Biosystems) were used. In this step, 2X Reverse Transcription Master Mix was prepared using the contents of the kit. Then, 10 µL of total RNA was added to 10 µL of 2X Reverse Transcription Master Mix in a microplate and the plate was sealed. This plate was then run in a thermocycler to generate cDNA.
Real time PCR: SsoAdvanced Universal SYBR® Green Supermix (BIO-RAD, Catalog No. 172-5270) and the QuantStudio 3 Real-Time PCR system (Applied Biosystems) were used to perform real-time PCR on the generated cDNA. In this step, a PCR mix was prepared using PCR Supermix, SYBR® primers for the targeted genes, and nuclease-free water. Two microliters of ten-fold diluted cDNA samples (5 µL of cDNA into 45 μL of nuclease-free water) were added to 8 µL of PCR Mix in a microplate and sealed. This plate was then run through the Real-Time PCR system to generate the mRNA expression data.
• Human GAPDH • F: […] • R: […] • Human CYP1A2 • Unique Assay ID: qHsaCID0015160 • Chromosome Location: 15:75045562-75047256 • Human CYP2B6 • F: […] • R: […] • Human CYP3A4 • F: […] • R: […]

Data set [3] concerns the target T1, CYP2C19.
The nature of data set [4]: in vitro. The conditions noted are these: beagle, dog, plasma, pH 7.4.
Data set [5] can be described thus: in vitro. To be noted: cynomolgus monkey, plasma, pH 7.4.
Data set [6] is described as follows: in vitro. To be noted: CD-1, mouse, plasma.
The subject of data set [7] is cynomolgus monkey plasma proteins. To be noted: 2.5 h, 2 µM, pH 7.4.
Data set [8] can be described thus: in vitro. The conditions noted are these: Sprague-Dawley, rat, plasma, pH 7.4.
Data set [9] concerns Sprague-Dawley rat plasma proteins. The conditions noted are these: 2.5 h, 2 µM, pH 7.4.
Data set [10] concerns beagle dog plasma proteins. The conditions noted are these: 2.5 h, 2 µM, pH 7.4.

T1 sequence (P33261 whole entry): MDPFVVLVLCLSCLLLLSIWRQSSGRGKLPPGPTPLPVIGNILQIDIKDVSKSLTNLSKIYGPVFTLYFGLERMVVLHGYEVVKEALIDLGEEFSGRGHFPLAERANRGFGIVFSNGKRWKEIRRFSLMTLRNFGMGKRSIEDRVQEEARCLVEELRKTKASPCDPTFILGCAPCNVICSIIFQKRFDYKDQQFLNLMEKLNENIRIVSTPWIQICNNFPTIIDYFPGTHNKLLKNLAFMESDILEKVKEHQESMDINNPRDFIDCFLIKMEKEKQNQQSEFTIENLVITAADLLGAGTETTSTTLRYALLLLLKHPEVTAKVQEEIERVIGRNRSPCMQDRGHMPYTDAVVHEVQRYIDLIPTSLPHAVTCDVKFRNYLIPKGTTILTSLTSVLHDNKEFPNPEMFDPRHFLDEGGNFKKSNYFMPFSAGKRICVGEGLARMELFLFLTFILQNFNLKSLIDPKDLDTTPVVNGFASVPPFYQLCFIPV

Consider `COc1ccc2[nH]c([S+]([O-])Cc3ncc(C)c(OC)c3C)nc2c1` (stereo not drawn) [Omeprazole, omeprazole], for which the inhibition at 30 min, 50 µM on CYP2C19 [1] (pH 7.4, % Inhibition at 50 µM No PI + NADPH) came out at 92.9%; on CYP2C19 [1] (pH 7.4, % Inhibition at 50 µM No PI − NADPH) it was 93.1%; at CYP2C19 [1] (pH 7.4, % Inhibition at 50 µM PI + NADPH), 95.8%; against CYP2C19 [1] (pH 7.4, % Inhibition at 50 µM PI − NADPH), 90.7%. Also, the half-maximal inhibitory concentration (IC50) at CYP2C19 [2] (IC50 (µM) No PI + NADPH, No PI + NADPH) came to 4.77 µM; on CYP2C19 [2] (IC50 (µM) No PI − NADPH, No PI − NADPH), 5.39 µM. Also, the “Comments (mRNA induction)” value in the data set with CYP1A2 was “Induced as Expected”. Besides, the “Comments (time-dependent inhibition)” value at CYP2C19 [3] was “+TDI”.

Take `CC(=O)CC(c1ccccc1)c1c(O)c2ccccc2oc1=O` (stereo not drawn) [Warfarin]: the fraction unbound at 2.5 h, 2 µM in “in vitro [4]” came out at 0.0305 ± 0.0036; in the data set “in vitro [5]”, 0.0086 ± 0.00116; in the data set “in vitro [6]” (pH 7.4, % Protein Free Mean ± SD) it was 0.04 ± 0.002; in “in vitro [6]” (pH 7.4, Fu (Unbound Fraction) Mean ± SD), 0.0398 ± 0.0016. Further, the values for the fraction remaining at 2.5 h, 2 µM in the data set “in vitro [4]”, in “in vitro [6]” (pH 7.4) and in the data set “in vitro [8]” were 105%, 108% and 105%, respectively. For the same molecule, the “% Protein Free Mean ± SD” value was determined as 0.9 ± 0.1% in data set [7], 0.7 ± 0.1% in data set [9] and 3.1 ± 0.4% in data set [10].
